Counter-ions that a name gives are not always drawn. Like-named read-outs stand apart in the source and are kept apart here.
How the values were obtained:
[1] = background statement on the free acid; cited from earlier work
[2] = Water solubility of etodolic acid and its salts; type: physicochemical; conditions: for solubility: water
Protocol: Etodolic acid was taken into consideration as a typical representative, particularly appreciated from the pharmacological point of view, of said derivatives and some typical salts thereof were prepared.
(§1) In order to avail oneself of a derivative usable in therapy, it is necessary, in fact, to obtain a highly soluble substance, also considering the doses of etodolic acid which have to be administered for getting an efficient therapeutic action (at least 200 mg twice a day in the adult).

[3] = Colour and stability of aqueous solutions of the salts (quickened ageing tests); type: physicochemical; conditions: for colour of the solutions: aqueous solutions
Protocol: as §1

[4] = Stability after sterilization at 120°C in autoclave for 20 min; type: physicochemical; conditions: 10% aqueous solution
From the text: (§2) The following tables No.1, 2 and 3 respectively show the stability data of sodium etodolate in aqueous solutions at 10% and 20% at various temperatures and again at 10% after sterilization in autoclave in a closed container.

[5] = Stability in a 10% aqueous solution at various temperatures; type: physicochemical; conditions: for remaining at 720 h / remaining at 1440 h / remaining at 2160 h: water, read-out: Titre % (HPLC)
From the text: as §2

[6] = Stability in a 20% aqueous solution at various temperatures; type: physicochemical; conditions: for remaining at 720 h / remaining at 1440 h / remaining at 2160 h: water, read-out: Titre % (HPLC)
From the text: as §2

[7] = pH of aqueous solutions of the sodium salt; type: physicochemical
From the text: The 20% solution has a pH of 8.7, while a 7.3% solution has a pH of 7.8.

[8] = after sterilization at 120°C in autoclave for 20 min, closed container

CCc1cccc2c3c([nH]c12)C(CC)(CC(=O)O)OCC3 (centres unmarked) [etodolic acid, 1,8-diethyl-1,3,4,9-tetrahydropyran-[3,4-b] indol-1-acetic acid]
water solubility (in words) [1]: water-insoluble

CCc1cccc2c3c([nH]c12)C(CC)(CC(=O)O)OCC3 (centres unmarked) [potassium salt, reference compound]
solubility [2]: 2%
colour of the solutions [3]: deeply coloured
stability of the solutions ([3]; quickened ageing tests): not much stable

CCc1cccc2c3c([nH]c12)C(CC)(CC(=O)O)OCC3 (centres unmarked) [sodium salt of etodolic acid, Sodium salt of etodolic acid]
Appearance of the solution [4, 8]: limpid
Colour of the solution [4, 8]: pale yellow
pH [4, 8]: 7.8
Appearance of the solution ([4]; at starting-point): limpid
Colour of the solution ([4]; at starting-point): pale yellow
Titre % (HPLC) ([4]; at starting-point): 100%
pH ([4]; at starting-point): 7.8
remaining at 20 min ([4]; water, after sterilization at 120°C in autoclave for 20 min, closed container, read-out: Titre (%) (HPLC)): 100%
Colour ([5]; 5°C, 1 month): unchanged
pH ([5]; 5°C, 1 month): 7.8
Colour ([5]; 5°C, 2 month): unchanged
pH ([5]; 5°C, 2 month): 7.8
Colour ([5]; 5°C, 3 month): unchanged
pH ([5]; 5°C, 3 month): 7.75
Colour ([5]; 25°C, 1 month): unchanged
pH ([5]; 25°C, 1 month): 7.8
Colour ([5]; 25°C, 2 month): unchanged
pH ([5]; 25°C, 2 month): 7.85
Colour ([5]; 25°C, 3 month): unchanged
pH ([5]; 25°C, 3 month): 7.8
Colour ([5]; 45°C, 1 month): unchanged
pH ([5]; 45°C, 1 month): 7.8
Colour ([5]; 45°C, 2 month): unchanged
pH ([5]; 45°C, 2 month): 7.8
Colour ([5]; 45°C, 3 month): unchanged
pH ([5]; 45°C, 3 month): 7.7
Colour ([5]; at starting point): pale yellow
Titre % (HPLC) ([5]; at starting point): 100%
pH ([5]; at starting point): 7.8
remaining at 720 h ([5]; 5°C, 1 month): 99%
remaining at 1440 h ([5]; 5°C, 2 month): 100%
remaining at 2160 h ([5]; 5°C, 3 month): 100%
remaining at 720 h ([5]; 25°C, 1 month): 100%
remaining at 1440 h ([5]; 25°C, 2 month): 100%
remaining at 2160 h ([5]; 25°C, 3 month): 99%
remaining at 720 h ([5]; 45°C, 1 month): 100%
remaining at 1440 h ([5]; 45°C, 2 month): 99%
remaining at 2160 h ([5]; 45°C, 3 month): 100%
Colour ([6]; 5°C, 1 month): unchanged
pH ([6]; 5°C, 1 month): 8.7
Colour ([6]; 5°C, 2 month): unchanged
pH ([6]; 5°C, 2 month): 8.7
Colour ([6]; 5°C, 3 month): unchanged
pH ([6]; 5°C, 3 month): 8.6
Colour ([6]; 25°C, 1 month): unchanged
pH ([6]; 25°C, 1 month): 8.7
Colour ([6]; 25°C, 2 month): unchanged
pH ([6]; 25°C, 2 month): 8.6
Colour ([6]; 25°C, 3 month): unchanged
pH ([6]; 25°C, 3 month): 8.7
Colour ([6]; 45°C, 1 month): unchanged
pH ([6]; 45°C, 1 month): 8.6
Colour ([6]; 45°C, 2 month): deep yellow
pH ([6]; 45°C, 2 month): 8.7
Colour ([6]; 45°C, 3 month): deep yellow
pH ([6]; 45°C, 3 month): 8.7
Colour ([6]; at starting point): pale yellow
Titre % (HPLC) ([6]; at starting point): 100%
pH ([6]; at starting point): 8.7
remaining at 720 h ([6]; 5°C, 1 month): 99%
remaining at 1440 h ([6]; 5°C, 2 month): 100%
remaining at 2160 h ([6]; 5°C, 3 month): 97%
remaining at 720 h ([6]; 25°C, 1 month): 100%
remaining at 1440 h ([6]; 25°C, 2 month): 99%
remaining at 2160 h ([6]; 25°C, 3 month): 100%
remaining at 720 h ([6]; 45°C, 1 month): 99%
remaining at 1440 h ([6]; 45°C, 2 month): 98%
remaining at 2160 h ([6]; 45°C, 3 month): 98%
pH ([7]; 7.3% solution): 7.8
pH ([7]; 20% solution): 8.7
water solubility (in words) [2]: easily soluble in water
solubility [2]: exceed 20 % by weight
solubility ([2]; water-soluble): > 200 mg/mL
colour of the solutions [3]: only fleebly yellow-coloured
stability of the solutions ([3]; during time): very stable during time
stability ([3]; most different storage and treatment conditions (summary of Tables 1-3)): quite stable
